This is an account of results in US11370763B2, “Compounds and compositions for treating conditions associated with NLRP activity” (Novartis AG, priority 2017, dated 2022).

The assay has as its system IL-1β production in PMA-differentiated THP-1 cells. The experiment in a line: IL-1β production in PMA-differentiated THP-1 cells stimulated with gramicidin (hTHP-1 assay containing 2% fetal bovine serum; Procedures 1-3). The class given is cell-based, human. The note with it: Homo sapiens, THP-1, hTHP-1 assay containing 2% fetal bovine serum, read-out: hTHP-1 IC50 (Average IC50 of compounds in hTHP-1 assay). The essentials:
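THP-1 cells differentiated with PMA (20 ng/ml, 16-18 h), replated in 2% FBS RPMI (50,000 cells/well), preincubated 1 h with compound (top final 100 μM, 3-fold steps, 0.37% DMSO), then stimulated 2 h with gramicidin (5 μM). Supernatant IL-1β measured by HTRF.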

Each structure is given as a SMILES string. pIC50: −log10 of the molar value. Where two headings read alike, the source gives them in different places.

Broadly, the pIC50 is −log10 of the IC50, conventionally taken in molar units. On to `CC(C)c1cc(F)cc(C(C)C)c1CC(=O)N=S(N)(=O)c1ncc(C(C)(C)O)s1` (stereo not shown) [Example 7, 2-(4-Fluoro-2,6-diisopropylphenyl)-N-(5-(2-hydroxypropan-2-yl)thiazole-2-sulfonimidoyl)acetamide], for which the pIC50 (class symbols) was 6.00 to 6.70.
Consider `CC(C)c1cc(F)cc(C(C)C)c1CC(=O)N=S(=O)(NC(=O)Cc1c(C(C)C)cc(F)cc1C(C)C)c1ncc(C(C)(C)O)s1` (stereo not shown) [Example 10, N,N-(5-(2-hydroxypropan-2-yl)thiazol-2-ylsulfinyl)bis(2-(4-fluoro-2,6-diisopropylphenyl)acetamide)], for which, where the note is “class symbols”, the pIC50 is 4.52 to 5.30.
With `CNS(=O)(=NC(=O)Cc1c(C(C)C)cc(F)cc1C(C)C)c1ncc(C(C)(C)O)s1` (stereo not shown) [Example 11, 2-(4-Fluoro-2,6-diisopropylphenyl)-N-(5-(2-hydroxypropan-2-yl)-N-methylthiazole-2-sulfonimidoyl)acetamide], the pIC50 (class symbols) was 4.52 to 5.30.
In the case of `CNS(=O)(=NC(=O)Cc1c2c(cc3c1CCC3)CCC2)c1ncc(C(C)(C)O)s1` (stereo not shown) [Example 12, 2-(1,2,3,5,6,7-Hexahydro-s-indacen-4-yl)-N-(5-(2-hydroxypropan-2-yl)-N-methylthiazole-2-sulfonimidoyl)acetamide], the pIC50 (given as numeric bound) is under 4.52.
For `CC(C)c1cc(C#N)c(F)c(C(C)C)c1CC(=O)N=S(N)(=O)c1sc(C(C)(C)O)cc1F` (stereo not shown) [Example 14, 2-(4-cyano-3-fluoro-2,6-diisopropylphenyl)-N-(3-fluoro-5-(2-hydroxypropan-2-yl)thiophen-2-ylsulfonimidoyl)acetamide], the negative-log IC50 (pIC50) (class symbols) is 7.40 to 8.10.
Same read-out and setting: in the case of `CC(C)c1cc(F)cc(C2CC2)c1CC(=O)N=S(N)(=O)c1ccc(CN(C)C)cc1` (stereo not shown) [Example 15, 2-(2-cyclopropyl-4-fluoro-6-isopropylphenyl)-N-(4-((dimethylamino)methyl)phenyl-sulfonimidoyl)acetamide] it was 5.30 to 6.00; in that of `CC(C)c1cc(OC(F)F)cc(C(C)C)c1CC(=O)N=S(N)(=O)c1cnc(C(C)(C)O)s1` (stereo not shown) [Example 16, 2-(4-(difluoromethoxy)-2,6-diisopropylphenyl)-N-(2-(2-hydroxypropan-2-yl)thiazol-5-ylsulfonimidoyl)acetamide], 6.00 to 6.70.
`CC(C)c1cc(F)cc(C(C)C)c1CC(=O)N=S(N)(=O)c1sc(C(C)(C)O)cc1F` (stereo not shown) [Example 17, 2-(4-fluoro-2,6-diisopropylphenyl)-N-(3-fluoro-5-(2-hydroxypropan-2-yl)thiophen-2-ylsulfonimidoyl)acetamide]: the pIC50 (class symbols) was 7.40 to 8.10.
Still for that read-out and setting: in the case of `CC(C)c1cc(F)cc(C2CC2)c1CC(=O)N=S(N)(=O)c1sc(C(C)(C)O)cc1F` (stereo not shown) [Example 18, 2-(2-cyclopropyl-4-fluoro-6-isopropylphenyl)-N-(3-fluoro-5-(2-hydroxypropan-2-yl)thiophen-2-ylsulfonimidoyl)acetamide] it was 6.70 to 7.40; in that of `CC(C)c1c(F)c(C#N)cc(C2CC2)c1CC(=O)N=S(N)(=O)c1sc(C(C)(C)O)cc1F` (stereo not shown) [Example 19, 2-(4-cyano-6-cyclopropyl-3-fluoro-2-isopropylphenyl)-N-(3-fluoro-5-(2-hydroxypropan-2-yl)thiophen-2-ylsulfonimidoyl)acetamide], 7.40 to 8.10; in that of `CC(C)c1cc(Cl)c(F)c(C2CC2)c1CC(=O)N=S(N)(=O)c1sc(C(C)(C)O)cc1F` (stereo not shown) [Example 20, 2-(4-chloro-2-cyclopropyl-3-fluoro-6-isopropylphenyl)-N-(3-fluoro-5-(2-hydroxypropan-2-yl)thiophen-2-ylsulfonimidoyl)acetamide], 6.00 to 6.70.
For the compound `CC(C)c1cc(OC(F)F)cc(C(C)C)c1CC(=O)N=S(N)(=O)c1sc(C(C)(C)O)cc1F` (stereo not shown) [Example 21, 2-(4-(difluoromethoxy)-2,6-diisopropylphenyl)-N-(3-fluoro-5-(2-hydroxypropan-2-yl)thiophen-2-ylsulfonimidoyl)acetamide], where the note is “class symbols”, the pIC50 is 6.70 to 7.40.
`CC(C)c1cc(C#N)cc(C(C)C)c1CC(=O)N=S(N)(=O)c1sc(C(C)(C)O)nc1CO` (stereo not shown) [Example 22, 2-(4-cyano-2,6-diisopropylphenyl)-N-(4-(hydroxymethyl)-2-(2-hydroxypropan-2-yl)thiazol-5-ylsulfonimidoyl)acetamide]: the pIC50 (class symbols) was 6.00 to 6.70.
For `CC(C)(O)c1nc(CO)c(S(N)(=O)=NC(=O)Cc2c3c(cc4c2CCC4)CCC3)s1` (stereo not shown) [Example 23, 2-(1,2,3,5,6,7-hexahydros-indacen-4-yl)-N-(4-(hydroxymethyl)-2-(2-hydroxypropan-2-yl)thiazol-5-ylsulfonimidoyl)acetamide], the pIC50 (class symbols) is 5.30 to 6.00.
On to `COCc1cc(C(C)C)c(CC(=O)N=S(N)(=O)c2sc(C(C)(C)O)nc2CO)c(C(C)C)c1` (stereo not shown) [Example 24, 2-(2,6-diisopropyl-4-(methoxymethyl)phenyl)-N-(4-(hydroxymethyl)-2-(2-hydroxypropan-2-yl)thiazole-5-sulfonimidoyl)acetamide], for which the negative-log IC50 (pIC50) (class symbols) was 6.00 to 6.70.
With `CC(C)c1cc(C#N)cc(C2CC2)c1CC(=O)N=S(N)(=O)c1sc(C(C)(C)O)nc1CO` (stereo not shown) [Example 25, 2-(4-cyano-2-cyclopropyl-6-isopropylphenyl)-N-(4-(hydroxymethyl)-2-(2-hydroxypropan-2-yl)thiazole-5-sulfonimidoyl)acetamide], the negative-log IC50 (pIC50) (class symbols) was 5.30 to 6.00.
Consider `Cc1cc(CN(C)C)ccc1S(N)(=O)=NC(=O)Cc1c(C(C)C)cc(OC(F)F)cc1C1CC1` (stereo not shown) [Example 26, 2-(2-cyclopropyl-4-(difluoromethoxy)-6-isopropylphenyl)-N-(4-((dimethylamino)methyl)-2-methylphenylsulfonimidoyl) acetamide], for which the pIC50 (class symbols) was 5.30 to 6.00.
As for `CC(C)c1cc(OC(F)F)cc(C(C)C)c1CC(=O)N=S(N)(=O)c1ccc(CN(C)C)cc1` (stereo not shown) [Example 27, 2-(4-(difluoromethoxy)-2,6-diisopropylphenyl)-N-(4-((dimethylamino)methyl)phenyl-sulfonimidoyl)acetamide], where the note is “class symbols”, the pIC50 was 5.30 to 6.00.
Take `CC(C)c1cc(C#N)cc(C(C)C)c1CC(=O)N=S(N)(=O)c1ccc(CN(C)C)cc1` (stereo not shown) [Example 28, 2-(4-cyano-2,6-diisopropylphenyl)-N-(4-((dimethylamino)methyl)phenyl-sulfonimidoyl)acetamide]: the pIC50 (class symbols) is 5.30 to 6.00.
Still for that read-out and setting: in the case of `CC(C)c1cc(C#N)cc(C2CC2)c1CC(=O)N=S(N)(=O)c1ccc(CN(C)C)cc1` (stereo not shown) [Example 29, 2-(4-cyano-2-cyclopropyl-6-isopropylphenyl)-N-(4-((dimethylamino)methyl)phenyl-sulfonimidoyl)acetamide] it was 4.52 to 5.30.
With `CCc1cc(C#N)cc(C(C)C)c1CC(=O)N=S(N)(=O)c1ccc(CN(C)C)cc1` (stereo not shown) [Example 30, 2-(4-cyano-2-ethyl-6-isopropylphenyl)-N-(4-((dimethylamino)methyl)phenyl-sulfonimidoyl)acetamide], the negative logarithm of the IC50 (pIC50) (class symbols) is 4.52 to 5.30.
As for `CC(C)c1cc(F)cc(C2CC2)c1CC(=O)N=S(N)(=O)c1ccc(CN(C)C)cc1F` (stereo not shown) [Example 31, 2-(2-cyclopropyl-4-fluoro-6-isopropylphenyl)-N-(4-((dimethylamino)methyl)-2-fluorophenylsulfonimidoyl) acetamide], under “class symbols”, the pIC50 is 5.30 to 6.00.
With `CC(C)c1cc(C#N)cc(C2CC2)c1CC(=O)N=S(N)(=O)c1ccc(CN(C)C)cc1F` (stereo not shown) [Example 32, 2-(4-cyano-2-cyclopropyl-6-isopropylphenyl)-N-(4-((dimethylamino)methyl)-2-fluorophenylsulfonimidoyl) acetamide], the pIC50 (class symbols) is 4.52 to 5.30.
Same read-out and setting: the result for `CC(C)c1cc(C(F)F)cc(C(C)C)c1CC(=O)N=S(N)(=O)c1ccc(C(C)(C)O)cc1F` (stereo not shown) [Example 33, 2-(4-(difluoromethyl)-2,6-diisopropylphenyl)-N-(2-fluoro-4-(2-hydroxypropan-2-yl)phenylsulfonimidoyl)acetamide] reads 6.00 to 6.70; that for `CC(C)c1cc(C#N)cc(C(C)C)c1CC(=O)N=S(N)(=O)c1ccc(C(C)(C)O)cc1Cl` (stereo not shown) [Example 34, N-(2-chloro-4-(2-hydroxypropan-2-yl)phenylsulfonimidoyl)-2-(4-cyano-2,6-diisopropylphenyl)acetamide], 5.30 to 6.00.
Same read-out and setting: in the case of `CC(C)c1cc(C(F)F)cc(C(C)C)c1CC(=O)N=S(N)(=O)c1ccc(CN(C)C)cc1F` (stereo not shown) [Example 35, 2-(4-(difluoromethyl)-2,6-diisopropylphenyl)-N-(4-((dimethylamino)methyl)-2-fluorophenylsulfonimidoyl) acetamide] it was 6.00 to 6.70; in that of `CCc1cc(OC(F)F)cc(C(C)C)c1CC(=O)N=S(N)(=O)c1sc(C(C)(C)O)cc1F` (stereo not shown) [Example 36, 2-(4-(difluoromethoxy)-2-ethyl-6-isopropylphenyl)-N-(3-fluoro-5-(2-hydroxypropan-2-yl)thiophene-2-sulfonimidoyl)acetamide], 6.00 to 6.70; in that of `CC(C)c1cc(C(F)F)cc(C(C)C)c1CC(=O)N=S(N)(=O)c1sc(C(C)(C)O)cc1F` (stereo not shown) [Example 37, 2-(4-(difluoromethyl)-2,6-diisopropylphenyl)-N-(3-fluoro-5-(2-hydroxypropan-2-yl)thiophene-2-sulfonimidoyl)acetamide], 6.70 to 7.40.
With `CC(C)c1cc(C#N)cc(C(C)C)c1CC(=O)N=S(N)(=O)c1ncc(C(C)(C)O)s1` (stereo not shown) [Example 38, 2-(4-cyano-2,6-diisopropylphenyl)-N-(5-(2-hydroxypropan-2-yl)thiazole-2-sulfonimidoyl)acetamide], the pIC50 (class symbols) was 6.00 to 6.70.
For the compound `Cc1nc(C(C)(C)O)sc1S(N)(=O)=NC(=O)Cc1c(C(C)C)cc(OC(F)F)cc1C(C)C` (stereo not shown) [Example 39, 2-(4-(difluoromethoxy)-2,6-diisopropylphenyl)-N-(2-(2-hydroxypropan-2-yl)-4-methylthiazole-5-sulfonimidoyl)acetamide], the pIC50 (class symbols) was 6.00 to 6.70.
Turning to `Cc1nc(C(C)(C)O)sc1S(N)(=O)=NC(=O)Cc1c(C(C)C)cc(C#N)cc1C(C)C` (stereo not shown) [Example 40, 2-(4-cyano-2,6-diisopropylphenyl)-N-(2-(2-hydroxypropan-2-yl)-4-methylthiazole-5-sulfonimidoyl)acetamide], the negative-log IC50 (pIC50) (class symbols) is 6.00 to 6.70.
